# Like-named read-outs stand apart in the source and are kept apart here.
# Legend:
# [1] = molecular target: KHK-C expressed in NRK-52E cells (Homo sapiens (Human), UniProt P50053); experiment: KHK-C Cell-based Assay (EC50), NRK CTG, fructose-mediated ATP-depletion
# human KHK-A = human KHK-A (Homo sapiens (Human), UniProt P50053); experiment: KHK Biochemical Assay (IC50), ADP-Glo, KHK-A; conditions: ADP-Glo; average of at least two separate assays
# Outline: (§1)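 ADP-Glo luminescence measured ADP made over a 4 h room-temperature reaction of ATP plus fructose, started after 30 min compound–enzyme pre-incubation. Buffer: 50 mM Hepes pH 7.4, 140 mM KCl, 5 mM MgCl2, 0.01% Triton-X. Enzyme was His-tagged, BL21 (DE3)-expressed, Ni-NTA-purified; compounds in 1:3 DMSO dilution series.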
# human KHK-C = human KHK-C (Homo sapiens (Human), UniProt P50053); experiment: KHK Biochemical Assay (IC50), ADP-Glo, KHK-C; conditions: ADP-Glo; average of at least two separate assays
# Outline: as §1
# human KHK-C, sequence (P50053 whole entry): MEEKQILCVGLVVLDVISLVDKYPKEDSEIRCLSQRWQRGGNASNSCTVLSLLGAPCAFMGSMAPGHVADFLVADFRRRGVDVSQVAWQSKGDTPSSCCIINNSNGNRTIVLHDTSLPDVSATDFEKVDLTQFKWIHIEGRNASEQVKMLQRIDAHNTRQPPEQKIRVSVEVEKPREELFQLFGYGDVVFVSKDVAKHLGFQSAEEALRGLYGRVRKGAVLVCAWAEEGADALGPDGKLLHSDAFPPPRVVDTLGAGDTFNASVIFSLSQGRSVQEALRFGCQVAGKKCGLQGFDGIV
# KHK-C expressed in NRK-52E cells, sequence (P50053 whole entry): as above
# human KHK-A, sequence (P50053 other isoform, or with tags, fused parts or gaps): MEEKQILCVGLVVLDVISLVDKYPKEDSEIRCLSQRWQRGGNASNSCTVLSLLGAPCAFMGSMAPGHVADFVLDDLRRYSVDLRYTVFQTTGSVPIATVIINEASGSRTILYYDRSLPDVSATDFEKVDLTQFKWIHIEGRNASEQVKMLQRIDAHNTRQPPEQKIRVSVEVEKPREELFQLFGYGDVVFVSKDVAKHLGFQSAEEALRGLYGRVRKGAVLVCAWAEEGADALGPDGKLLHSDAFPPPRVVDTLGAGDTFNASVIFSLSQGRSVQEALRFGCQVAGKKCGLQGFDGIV
Compound,EC50 [1] [nM],IC50 (human KHK-A) [nM],IC50 (human KHK-C) [nM],"EC50 ([1]; read-out: NRK CTG EC50, NRK-52E cells, fructose-mediated ATP-depletion, Cell-Titer Glo) [nM]"
"C[C@H]1CCN1c1nc2c(c(-c3cccc(S(=O)(=O)NCC(=O)O)c3)n1)CCC2 [Example 74, (S)-((3-(2-(2-methylazetidin-1-yl)-6,7-dihydro-5H-cyclopenta[d]pyrimidin-4-yl)phenyl)sulfonyl)glycine]",859,22.9,26.3,–
C[C@H]1[C@H](O)CN1c1nc2c(c(-c3cccc(NS(=O)(=O)CC(=O)O)c3)n1)CCC2 [Example 82],> 5000,14.9,14.9,–
"C[C@H]1CCN1c1nc2c(c(-c3ccc4c(c3)S(=O)(=O)NC4=O)n1)CCC2 [Example 86, (S)-6-(2-(2-methylazetidin-1-yl)-6,7-dihydro-5H-cyclopenta[d]pyrimidin-4-yl)benzo[d]isothiazol-3(2H)-one 1,1-dioxide]",> 5000,50.2,38.6,–
"C[C@H]1CCN1c1nc2c(c(-c3cccc(CS(C)(=O)=O)c3)n1)CCC2 [Example 88, (S)-2-(2-methylazetidin-1-yl)-4-(3-((methylsulfonyl)methyl)phenyl)-6,7-dihydro-5H-cyclopenta[d]pyrimidine]",214,75.3,62.8,–
"C[C@H]1CCN1c1nc2c(c(-c3ccc(C(=O)NCCO)cc3)n1)CCC2 [Example 91, (S)—N-(2-hydroxyethyl)-4-(2-(2-methylazetidin-1-yl)-6,7-dihydro-5H-cyclopenta[d]pyrimidin-4-yl)benzamide]",120,45.2,55.6,–
"NS(=O)(=O)c1cccc(-c2nc(N3CC[C@@H]3CO)nc3c2CCC3)c1 [Example 92, (R)-3-(2-(2-(hydroxymethyl)azetidin-1-yl)-6,7-dihydro-5H-cyclopenta[d]pyrimidin-4-yl)benzenesulfonamide]",368,82.3,93,–
"C[C@H]1CCN1c1nc2c(c(-c3ccc(-c4nnn[nH]4)cc3)n1)CCC2 [Example 104, (S)-4-(4-(1H-tetrazol-5-yl)phenyl)-2-(2-methylazetidin-1-yl)-6,7-dihydro-5H-cyclopenta[d]pyrimidine]",> 5000,119,46.2,–
C[C@@H]1CN(c2nc3c(c(-c4ccc(C(N)=O)cc4)n2)CCC3)[C@H]1C [Example 106],–,148,126,209
"C[C@H]1CCN1c1nc2c(c(-c3cn4cnc(C(N)=O)c4s3)n1)CCC2 [Example 119, (S)-2-(2-(2-methylazetidin-1-yl)-6,7-dihydro-5H-cyclopenta[d]pyrimidin-4-yl)imidazo[5,1-b]thiazole-7-carboxamide]",6.6,13.4,2.4,–
"C[C@H]1CCN1c1nc2c(c(-c3ccc(F)c(S(N)(=O)=O)c3)n1)CCC2 [Example 122, (S)-2-fluoro-5-(2-(2-methylazetidin-1-yl)-6,7-dihydro-5H-cyclopenta[d]pyrimidin-4-yl)benzenesulfonamide]",51.8,44.5,41.8,–
"C[C@H]1CCN1c1nc2c(c(-c3ccc(C(N)=O)cc3)n1)CC2 [Example 124, (S)-4-(3-(2-methylazetidin-1-yl)-2,4-diazabicyclo[4.2.0]octa-1,3,5-trien-5-yl)benzamide]",973,535,328,–
C[C@H]1[C@H](O)CN1c1nc2c(c(-c3ccc(C(N)=O)cc3)n1)CC2 [Example 125],3560,932,572,–
"C[C@H]1CCN1c1nc2c(c(-c3ccc4ccc(=O)[nH]c4c3)n1)CCC2 [Example 132, (S)-7-(2-(2-methylazetidin-1-yl)-6,7-dihydro-5H-cyclopenta[d]pyrimidin-4-yl)quinolin-2(1H)-one]",131,97.6,71.8,–

# Continued, values first:
EC50 [1] [nM],IC50 (human KHK-A) [nM],IC50 (human KHK-C) [nM],"EC50 ([1]; read-out: NRK CTG EC50, NRK-52E cells, fructose-mediated ATP-depletion, Cell-Titer Glo) [nM]",Compound
> 5000,9.5,7.6,–,"C[C@H]1CCN1c1nc2c(c(-c3cccc(NS(=O)(=O)CC(=O)O)c3)n1)CCC2 [Example 81, (S)-2-(N-(3-(2-(2-methylazetidin-1-yl)-6,7-dihydro-5H-cyclopenta[d]pyrimidin-4-yl)phenyl)sulfamoyl)acetic acid]"
> 5000,32.5,10.3,–,"C[C@H]1CCN1c1nc2c(c(-c3cccc(NS(=O)(=O)CCC(=O)O)c3)n1)CCC2 [Example 83, (S)-3-(N-(3-(2-(2-methylazetidin-1-yl)-6,7-dihydro-5H-cyclopenta[d]pyrimidin-4-yl)phenyl)sulfamoyl)propanoic acid]"
221,60.3,43.1,–,"NC(=O)c1ccc(-c2nc(N3CC[C@@H]3CO)nc3c2CCC3)cc1 [Example 95, (R)-4-(2-(2-(hydroxymethyl)azetidin-1-yl)-6,7-dihydro-5H-cyclopenta[d]pyrimidin-4-yl)benzamide]"
2920,1550,1060,–,"C[C@H]1CN(c2nc3c(c(-c4ccc(C(N)=O)cc4)n2)CCC3)[C@H]1C [Example 107, 4-(2-((2S,3S)-2,3-dimethylazetidin-1-yl)-6,7-dihydro-5H-cyclopenta[d]pyrimidin-4-yl)benzamide]"
62.4,40.2,30.5,–,"Cc1ccc(-c2nc(N3CC[C@@H]3C)nc3c2CCC3)cc1S(N)(=O)=O [Example 123, (S)-2-methyl-5-(2-(2-methylazetidin-1-yl)-6,7-dihydro-5H-cyclopenta[d]pyrimidin-4-yl)benzenesulfonamide]"
253,406,400,–,"C[C@H]1CCN1c1nc2c(c(-c3ccc(OC(F)(F)F)c(S(N)(=O)=O)c3)n1)CCC2 [Example 126, (S)-5-(2-(2-methylazetidin-1-yl)-6,7-dihydro-5H-cyclopenta[d]pyrimidin-4-yl)-2-(trifluoromethoxy)benzenesulfonamide]"
223,99.6,65.5,–,"C[C@H]1CCN1c1nc2c(c(-c3ccc(C4(O)COC4)cc3)n1)CCC2 [Example 127, (S)-3-(4-(2-(2-methylazetidin-1-yl)-6,7-dihydro-5H-cyclopenta[d]pyrimidin-4-yl)phenyl)oxetan-3-ol]"
6.3,2.3,2.3,–,"C[C@H]1CCN1c1nc(-c2ccc(C(N)=O)cc2)c2c(n1)C(F)(F)CC2 [Example 128, (S)-4-(7,7-difluoro-2-(2-methylazetidin-1-yl)-6,7-dihydro-5H-cyclopenta[d]pyrimidin-4-yl)benzamide]"
> 5000,> 5000,> 5000,–,"C[C@H]1CCN1c1nc2c(c(-c3cc(S(N)(=O)=O)c(F)cc3F)n1)CCC2 [Example 130, (S)-2,4-difluoro-5-(2-(2-methylazetidin-1-yl)-6,7-dihydro-5H-cyclopenta[d]pyrimidin-4-yl)benzenesulfonamide]"
> 5000,236,141,–,"C[C@H]1CCN1c1nc2c(c(-c3ccc4ccc(=O)n(CCC(=O)O)c4c3)n1)CCC2 [Example 133, (S)-3-(7-(2-(2-methylazetidin-1-yl)-6,7-dihydro-5H-cyclopenta[d]pyrimidin-4-yl)-2-oxoquinolin-1(2H)-yl)propanoic acid]"
